According to US20120122919A1, “PHARMACEUTICAL COMPOSITION COMBINING TENATOPRAZOLE AND A HISTAMINE H2-RECEPTOR ANTAGONIST” (priority 2002, published 2012):

Test: phase I pharmacokinetic study of tenatoprazole, oral single dose and daily dose for 7 days
Format: in vivo, Caucasian individuals
Protocol: The doses tested were 10, 20, 40 and 80 mg of tenatoprazole.

In the case of `COc1ccc2[nH]c([S+]([O-])Cc3ncc(C)c(OC)c3C)nc2n1` (stereo not drawn) [tenatoprazole, 5-methoxy-2-[[(4-methoxy-3,5-dimethyl-2-pyridyl)methyl]sulfinyl]imidazo[4,5-b]pyridine], the half-life at 7 days (human, plasma, after administration for seven days, depending on the dose (10-80 mg), read-out: mean elimination half-lives) is reported as 5 to 9.2 h, the T½ elimination half-life (repeated dose (7 days), 40 mg) is reported as 9 h and the T½ elimination half-life (single dose, 80 mg) is reported as 7 h.
